Source: US9242933B2 (AbbVie Deutschland GmbH & Co. KG, priority 2007, dated 2016)

What follows are molecules tested against T1, human mGlu2 receptor (Homo sapiens, UniProt Q14416) (assay: FLIPR intracellular Ca2+ assay, potentiation of glutamate response in HEK293 clone expressing mGlu2 receptor, rGLAST and Galpha16). Conditions: 1 μM glutamate added ten minutes after test compound, HEK293 cells with human mGlu2, rGLAST, Galpha16, read-out: EC50 values of potentiation effect to glutamate.
T1 construct: expressed in transfected cells; host or cells: HEK293
T1 sequence (Q14416 19-872): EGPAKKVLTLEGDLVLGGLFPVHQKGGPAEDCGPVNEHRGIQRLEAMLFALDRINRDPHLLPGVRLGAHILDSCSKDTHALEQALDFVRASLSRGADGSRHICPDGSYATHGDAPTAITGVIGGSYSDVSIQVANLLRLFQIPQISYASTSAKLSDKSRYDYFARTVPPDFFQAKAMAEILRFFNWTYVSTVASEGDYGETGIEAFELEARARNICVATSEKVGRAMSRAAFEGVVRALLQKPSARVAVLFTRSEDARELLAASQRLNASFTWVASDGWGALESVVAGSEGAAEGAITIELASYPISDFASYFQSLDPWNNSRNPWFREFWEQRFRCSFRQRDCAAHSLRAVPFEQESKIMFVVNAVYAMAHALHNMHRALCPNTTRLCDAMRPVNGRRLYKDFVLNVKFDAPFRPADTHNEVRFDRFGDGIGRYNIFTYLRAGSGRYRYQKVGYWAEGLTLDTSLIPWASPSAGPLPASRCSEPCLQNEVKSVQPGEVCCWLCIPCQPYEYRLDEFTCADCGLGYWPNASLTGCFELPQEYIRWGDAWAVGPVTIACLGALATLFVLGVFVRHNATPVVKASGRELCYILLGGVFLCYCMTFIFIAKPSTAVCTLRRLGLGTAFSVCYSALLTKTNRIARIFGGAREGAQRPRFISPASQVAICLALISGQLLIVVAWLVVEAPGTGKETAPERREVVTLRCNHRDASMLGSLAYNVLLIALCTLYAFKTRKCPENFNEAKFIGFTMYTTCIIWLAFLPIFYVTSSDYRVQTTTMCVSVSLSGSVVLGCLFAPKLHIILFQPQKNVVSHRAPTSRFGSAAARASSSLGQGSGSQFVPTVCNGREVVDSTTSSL
Type: cell-based
Summary of the method: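 HEK293 cells stably expressing human mGlu2, rat GLAST and Gα16 were loaded with 2 µM Fluo-4 AM and intracellular Ca2+ read by FLIPR. Compound added alone (agonism), then with submaximal glutamate (e.g. 1 µM; potentiation). Background-subtracted peaks normalized to 100 µM glutamate response; EC50 from four-parameter fit.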

EC50 [nM]	SMILES
< 1000	CCCN1Cc2cc(OCc3c[nH]nc3-c3ccc(C(F)(F)F)cc3)ccc2C1=O [Example 531, 2-Propyl-5-[3-(4-trifluoromethyl-phenyl)-1H-pyrazol-4-ylmethoxy]-2,3-dihydro-isoindol-1-one]
< 1000	CCCN1Cc2cc(OCc3c[nH]nc3-c3cccc(C(F)(F)F)c3)ccc2C1=O [Example 532, 2-Propyl-5-[3-(3-trifluoromethyl-phenyl)-1H-pyrazol-4-ylmethoxy]-2,3-dihydro-isoindol-1-one]
< 1000	CCCN1Cc2cc(OCc3c[nH]nc3-c3ccc(F)cc3)ccc2C1=O [Example 533, 5-[3-(4-Fluorophenyl)-1H-pyrazol-4-ylmethoxy]-2-propyl-2,3-dihydro-isoindol-1-one]
< 1000	CCCN1Cc2cc(OCc3c[nH]nc3-c3cccc(Cl)c3)ccc2C1=O [Example 535, 5-[3-(3-Chloro-phenyl)-1H-pyrazol-4-ylmethoxy]-2-propyl-2,3-dihydro-isoindol-1-one]
< 1000	CCCN1Cc2cc(OCc3c[nH]nc3-c3cccc(F)c3)ccc2C1=O [Example 536, 5-[3-(3-Fluorophenyl)-1H-pyrazol-4-ylmethoxy]-2-propyl-2,3-dihydro-isoindol-1-one]
< 1000	CCCN1Cc2cc(OCc3c[nH]nc3-c3ccccc3)ccc2C1=O [Example 537, 5-(3-Phenyl-1H-pyrazol-4-ylmethoxy)-2-propyl-2,3-dihydro-isoindol-1-one]
< 1000	O=C1c2ccc(OCc3c[nH]nc3-c3cccc(C(F)(F)F)c3)cc2CN1CCC(F)(F)F [Example 538, 5-[3-(3-Trifluoromethyl-phenyl)-1H-pyrazol-4-ylmethoxy]-2-(3,3,3-trifluoro-propyl)-2,3-dihydro-isoindol-1-one]
< 1000	O=C1c2ccc(OCc3c[nH]nc3-c3cccc(F)c3)cc2CN1CCC(F)(F)F [Example 541, 5-[3-(3-Fluorophenyl)-1H-pyrazol-4-ylmethoxy]-2-(3,3,3-trifluoro-propyl)-2,3-dihydro-isoindol-1-one]
< 1000	O=C1c2ccc(OCc3c[nH]nc3-c3ccccc3)cc2CN1CCC(F)(F)F [Example 543, 5-(3-Phenyl-1H-pyrazol-4-ylmethoxy)-2-(3,3,3-trifluoro-propyl)-2,3-dihydro-isoindol-1-one]
< 1000	CCCCN1Cc2cc(OCc3c[nH]nc3-c3ccc(C(F)(F)F)cc3)ccc2C1=O [Example 544, 2-Butyl-5-[3-(4-trifluoromethyl-phenyl)-1H-pyrazol-4-ylmethoxy]-2,3-dihydro-isoindol-1-one]
< 1000	CCCCN1Cc2cc(OCc3c[nH]nc3-c3cccc(C(F)(F)F)c3)ccc2C1=O [Example 545, 2-Butyl-5-[3-(3-trifluoromethyl-phenyl)-1H-pyrazol-4-ylmethoxy]-2,3-dihydro-isoindol-1-one]
< 1000	CCCCN1Cc2cc(OCc3c[nH]nc3-c3cccc(Cl)c3)ccc2C1=O [Example 549, 2-Butyl-5-[3-(3-chloro-phenyl)-1H-pyrazol-4-ylmethoxy]-2,3-dihydro-isoindol-1-one]
< 1000	CCCCN1Cc2cc(OCc3c[nH]nc3-c3cccc(F)c3)ccc2C1=O [Example 550, 2-Butyl-5-[3-(3-fluorophenyl)-1H-pyrazol-4-ylmethoxy]-2,3-dihydro-isoindol-1-one]
< 1000	CCN1Cc2cc(OCc3c[nH]nc3-c3cccc(C(F)(F)F)c3)ccc2C1=O [Example 558, 2-Ethyl-5-[3-(3-trifluoromethyl-phenyl)-1H-pyrazol-4-ylmethoxy]-2,3-dihydro-isoindol-1-one]
< 1000	CCN1Cc2cc(OCc3c[nH]nc3-c3cccc(F)c3)ccc2C1=O [Example 560, 2-Ethyl-5-[3-(3-fluorophenyl)-1H-pyrazol-4-ylmethoxy]-2,3-dihydro-isoindol-1-one]

Second part, the molecule before the results:

SMILES	EC50 [nM]
CCCC(=O)c1ccc(NCc2c[nH]cc2-c2ccccc2)cc1 [Example 523, 1-{4-[(4-Phenyl-1H-pyrrol-3-ylmethyl)-amino]-phenyl}-butan-1-one]	1000 to 10000
CCCC(=O)c1ccc(NCc2ccncc2-c2ccccc2)cc1 [Example 524, 1-{4-[(3-Phenyl-pyridin-4-ylmethyl)-amino]-phenyl}-butan-1-one]	1000 to 10000
CCCC(=O)c1ccc(NCc2cnccc2-c2ccccc2)cc1 [Example 525, 1-{4-[(4-Phenyl-pyridin-3-ylmethyl)-amino]-phenyl}-butan-1-one]	< 1000
CCCC(=O)c1ccc(NCc2cccnc2-c2ccccc2)cc1 [Example 526, 1-{4-[(2-Phenyl-pyridin-3-ylmethyl)-amino]-phenyl}-butan-1-one]	1000 to 10000
CCCC(=O)c1ccc(NCc2cnn3ccccc23)cc1 [Example 529, 1-{4-[(Pyrazolo[1,5-a]pyridin-3-ylmethyl)-amino]-phenyl}-butan-1-one]	1000 to 10000
CCCN1Cc2cc(OCc3c[nH]nc3-c3ccc(Cl)cc3)ccc2C1=O [Example 534, 5-[3-(4-Chloro-phenyl)-1H-pyrazol-4-ylmethoxy]-2-propyl-2,3-dihydro-isoindol-1-one]	< 1000
O=C1c2ccc(OCc3c[nH]nc3-c3ccc(Cl)cc3)cc2CN1CCC(F)(F)F [Example 539, 5-[3-(4-Chloro-phenyl)-1H-pyrazol-4-ylmethoxy]-2-(3,3,3-trifluoro-propyl)-2,3-dihydro-isoindol-1-one]	< 1000
O=C1c2ccc(OCc3c[nH]nc3-c3ccc(F)cc3)cc2CN1CCC(F)(F)F [Example 540, 5-[3-(4-Fluorophenyl)-1H-pyrazol-4-ylmethoxy]-2-(3,3,3-trifluoro-propyl)-2,3-dihydro-isoindol-1-one]	< 1000
O=C1c2ccc(OCc3c[nH]nc3-c3ccc(C(F)(F)F)cc3)cc2CN1CCC(F)(F)F [Example 542, 5-[3-(4-Trifluoromethyl-phenyl)-1H-pyrazol-4-ylmethoxy]-2-(3,3,3-trifluoro-propyl)-2,3-dihydro-isoindol-1-one]	< 1000
CCCCN1Cc2cc(OCc3c[nH]nc3-c3ccc(Cl)cc3)ccc2C1=O [Example 546, 2-Butyl-5-[3-(4-chloro-phenyl)-1H-pyrazol-4-ylmethoxy]-2,3-dihydro-isoindol-1-one]	< 1000
CCCCN1Cc2cc(OCc3c[nH]nc3-c3ccc(Cl)c(Cl)c3)ccc2C1=O [Example 547, 2-Butyl-5-[3-(3,4-dichloro-phenyl)-1H-pyrazol-4-ylmethoxy]-2,3-dihydro-isoindol-1-one]	< 1000
CCCCN1Cc2cc(OCc3c[nH]nc3-c3ccc(F)cc3)ccc2C1=O [Example 548, 2-Butyl-5-[3-(4-fluorophenyl)-1H-pyrazol-4-ylmethoxy]-2,3-dihydro-isoindol-1-one]	< 1000
CCCCN1Cc2cc(OCc3c[nH]nc3-c3ccccc3)ccc2C1=O [Example 551, 2-Butyl-5-(3-phenyl-1H-pyrazol-4-ylmethoxy)-2,3-dihydro-isoindol-1-one]	< 1000
O=C1c2ccc(OCc3c[nH]nc3-c3ccc(C(F)(F)F)cc3)cc2CN1CCCC(F)(F)F [Example 552, 2-(4,4,4-Trifluoro-butyl)-5-[3-(4-trifluoromethyl-phenyl)-1H-pyrazol-4-ylmethoxy]-2,3-dihydro-isoindol-1-one]	< 1000
O=C1c2ccc(OCc3c[nH]nc3-c3ccccc3)cc2CN1CCCC(F)(F)F [Example 553, 5-(3-Phenyl-1H-pyrazol-4-ylmethoxy)-2-(4,4,4-trifluoro-butyl)-2,3-dihydro-isoindol-1-one]	< 1000
O=C1c2ccc(OCc3c[nH]nc3-c3ccc(Cl)c(Cl)c3)cc2CN1CCCC(F)(F)F [Example 554, 5-[3-(3,4-dichloro-phenyl)-1H-pyrazol-4-ylmethoxy]-2-(4,4,4-trifluoro-butyl)-2,3-dihydro-isoindol-1-one]	< 1000
CCN1Cc2cc(OCc3c[nH]nc3-c3ccc(F)cc3)ccc2C1=O [Example 559, 2-Ethyl-5-[3-(4-fluorophenyl)-1H-pyrazol-4-ylmethoxy]-2,3-dihydro-isoindol-1-one]	< 1000
CCN1Cc2cc(OCc3c[nH]nc3-c3ccc(Cl)cc3)ccc2C1=O [Example 562, 5-[3-(4-Chloro-phenyl)-1H-pyrazol-4-ylmethoxy]-2-ethyl-2,3-dihydro-isoindol-1-one]	< 1000
CCN1Cc2cc(OCc3c[nH]nc3-c3ccccc3)ccc2C1=O [Example 563, 2-Ethyl-5-(3-phenyl-1H-pyrazol-4-ylmethoxy)-2,3-dihydro-isoindol-1-one]	< 1000
O=C1c2ccc(OCc3c[nH]nc3-c3ccc(C(F)(F)F)cc3)cc2CN1CCBr [Example 564, 2-(2-Bromo-ethyl)-5-[3-(4-trifluoromethyl-phenyl)-1H-pyrazol-4-ylmethoxy]-2,3-dihydro-isoindol-1-one]	< 1000
O=C1c2ccc(OCc3c[nH]nc3-c3cccc(C(F)(F)F)c3)cc2CN1CCBr [Example 565, 2-(2-Bromo-ethyl)-5-[3-(3-trifluoromethyl-phenyl)-1H-pyrazol-4-ylmethoxy]-2,3-dihydro-isoindol-1-one]	< 1000
O=C1c2ccc(OCc3c[nH]nc3-c3ccc(C(F)(F)F)cc3)cc2CN1CC(F)F [Example 566, 2-(2,2-Difluoro-ethyl)-5-[3-(4-trifluoromethyl-phenyl)-1H-pyrazol-4-ylmethoxy]-2,3-dihydro-isoindol-1-one]	< 1000
O=C1c2ccc(OCc3c[nH]nc3-c3ccccc3)cc2CN1CC(F)F [Example 567, 2-(2,2-Difluoro-ethyl)-5-(3-phenyl-1H-pyrazol-4-ylmethoxy)-2,3-dihydro-isoindol-1-one]	< 1000
O=C1c2ccc(OCc3c[nH]nc3-c3ccc(C(F)(F)F)cc3)cc2CN1CC(F)(F)F [Example 568, 2-(2,2,2-Trifluoro-ethyl)-5-[3-(4-trifluoromethyl-phenyl)-1H-pyrazol-4-ylmethoxy]-2,3-dihydro-isoindol-1-one]	< 1000
